Measurements published in US20260092061A1, “COMPOUNDS FOR TARGETED PROTEIN DEGRADATION” (Amphista Therapeutics Limited, priority 2022, published 2026).
One block for each molecule: values may come before it.

Molecular target: T1, BRD9 (Homo sapiens, UniProt Q9H8M2)
T1 sequence (Q9H8M2 1-597): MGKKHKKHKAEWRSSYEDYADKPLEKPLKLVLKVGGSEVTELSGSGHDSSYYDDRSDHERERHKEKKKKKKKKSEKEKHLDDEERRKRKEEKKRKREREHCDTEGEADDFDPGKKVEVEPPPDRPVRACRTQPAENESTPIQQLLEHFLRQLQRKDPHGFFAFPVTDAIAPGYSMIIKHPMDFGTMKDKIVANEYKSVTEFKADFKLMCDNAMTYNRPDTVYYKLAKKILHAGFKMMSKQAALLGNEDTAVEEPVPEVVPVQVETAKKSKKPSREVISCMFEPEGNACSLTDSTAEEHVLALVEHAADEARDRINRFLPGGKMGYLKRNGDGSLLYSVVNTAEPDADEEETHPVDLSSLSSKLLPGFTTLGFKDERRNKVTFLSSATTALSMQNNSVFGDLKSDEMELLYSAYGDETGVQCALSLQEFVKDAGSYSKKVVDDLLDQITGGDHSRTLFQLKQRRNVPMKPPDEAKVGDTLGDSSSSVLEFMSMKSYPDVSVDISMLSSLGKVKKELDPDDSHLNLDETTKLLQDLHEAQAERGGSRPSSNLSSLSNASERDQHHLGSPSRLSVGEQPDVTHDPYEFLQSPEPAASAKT
Experiment: Degradation of BRD9 (IF), immunofluorescence in MV4-11 cells, 24 hours (Assay Protocol 2)
Format: cell-based
Design: A suspension of MV4-11 cells (ATCC CRL-9591) was prepared; host or cells: MV4-11
Settings: BRD9 degradation; for DC50: Assay protocol 2, read-out: DC50; for Dmax: MV4-11, Assay protocol 2, read-out: Dmax
Outline: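 MV4-11 cells treated with compound 24 h at 37° C., then fixed, permeabilised and immunostained for BRD9 (anti-BRD9 E4Q3F, Alexa 647 secondary, Hoechst counterstain). High-content imaging quantified nuclear BRD9 signal; % BRD9 remaining normalised to DMSO and 100 nM CFT-8634 controls.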

SMILES: CCC(C)(C)/C=C(\C#N)C(=O)N1CCc2c(CN3CCN(Cc4c(OC)cc(-c5cn(C)c(=O)c(C)c5C)cc4OC)CC34CC4)cccc2C1C (mixture of isomers) [Compound B117, (E/Z)-2-(5-((7-(2,6-dimethoxy-4-(1,4,5-trimethyl-6-oxo-1,6-dihydropyridin-3-yl)benzyl)-4,7-diazaspiro[2.5]octan-4-yl)methyl)-1-methyl-1,2,3,4-tetrahydroisoquinoline-2-carbonyl)-4,4-dimethylhex-2-enenitrile]
DC50: 1.25 to 10 nM
Dmax: > 75%

SMILES: CC[C@@H]1CN(Cc2cccc3c2CCN(C(=O)/C(C#N)=C/C(C)(C)C)C3C)CCN1Cc1c(OC)cc(-c2cn(C)c(=O)c(C)c2C)cc1OC (mixture of isomers) [Compound B120, (E/Z)-2-(5-(((R)-4-(2,6-dimethoxy-4-(1,4,5-trimethyl-6-oxo-1,6-dihydropyridin-3-yl)benzyl)-3-ethylpiperazin-1-yl)methyl)-1-methyl-1,2,3,4-tetrahydroisoquinoline-2-carbonyl)-4,4-dimethylpent-2-enenitrile]
DC50: 1.25 to 10 nM
Dmax: 70 to 75%

SMILES: COc1cc(-c2cn(C)c(=O)c(C)c2C)cc(OC)c1CN1C[C@H](C)N(Cc2cccc3c2CCN(C(=O)/C(C#N)=C/C(C)(C)C)C3C)C[C@@H]1C (mixture of isomers) [Compound B121, (E/Z)-2-(5-(((2S,5S)-4-(2,6-dimethoxy-4-(1,4,5-trimethyl-6-oxo-1,6-dihydropyridin-3-yl)benzyl)-2,5-dimethylpiperazin-1-yl)methyl)-1-methyl-1,2,3,4-tetrahydroisoquinoline-2-carbonyl)-4,4-dimethylpent-2-enenitrile]
DC50: 25 to 1000 nM
Dmax: 40 to 70%

SMILES: COc1cc(-c2cn(C)c(=O)c(C)c2C)cc(OC)c1CN1CCN(Cc2cccc3c2CCN(C(=O)/C(C#N)=C/C(C)(C)C)C3C)C2(CCC2)C1 (mixture of isomers) [Compound B130, (E/Z)-2-(5-((8-(2,6-dimethoxy-4-(1,4,5-trimethyl-6-oxo-1,6-dihydropyridin-3-yl)benzyl)-5,8-diazaspiro[3.5]nonan-5-yl)methyl)-1-methyl-1,2,3,4-tetrahydroisoquinoline-2-carbonyl)-4,4-dimethylpent-2-enenitrile]
DC50: 10 to 25 nM
Dmax: > 75%

SMILES: COc1cc(-c2cn(C)c(=O)c(C)c2C)cc(OC)c1CN1CCN(Cc2cccc3c2CCN(C(=O)/C(C#N)=C/c2cccc(Br)n2)C3C)C(C(C)C)C1 (mixture of isomers) [Compound B131, (E/Z)-3-(6-bromopyridin-2-yl)-2-(5-((4-(2,6-dimethoxy-4-(1,4,5-trimethyl-6-oxo-1,6-dihydropyridin-3-yl)benzyl)-2-isopropylpiperazin-1-yl)methyl)-1-methyl-1,2,3,4-tetrahydroisoquinoline-2-carbonyl)acrylonitrile]
DC50: 1.25 to 10 nM
Dmax: > 75%

SMILES: COc1cc(-c2cn(C)c(=O)c(C)c2C)cc(OC)c1CN1CC[C@H](Oc2cccc3c2CCN(C(=O)/C(C#N)=C/C(C)(C)C)C3C)C1 (mixture of isomers) [Compound B133, (E/Z)-2-(5-(((R)-1-(2,6-dimethoxy-4-(1,4,5-trimethyl-6-oxo-1,6-dihydropyridin-3-yl)benzyl)pyrrolidin-3-yl)oxy)-1-methyl-1,2,3,4-tetrahydroisoquinoline-2-carbonyl)-4,4-dimethylpent-2-enenitrile]
DC50: 10 to 25 nM
Dmax: 40 to 70%

SMILES: COc1cc(-c2cn(C)c(=O)c(C)c2C)cc(OC)c1CN1CCN(Cc2cccc3c2CCN(C(=O)/C(C#N)=C/C(C)(C)C)C3C)C(C(C)C)C1 (mixture of isomers) [Compound B136, (E/Z)-2-(5-((4-(2,6-dimethoxy-4-(1,4,5-trimethyl-6-oxo-1,6-dihydropyridin-3-yl)benzyl)-2-isopropylpiperazin-1-yl)methyl)-1-methyl-1,2,3,4-tetrahydroisoquinoline-2-carbonyl)-4,4-dimethylpent-2-enenitrile]
DC50: 1.25 to 10 nM
Dmax: > 75%

SMILES: COc1cc(-c2cn(C)c(=O)c(C)c2C)cc(OC)c1CN1CCN(Cc2cccc3c2CCN(C(=O)/C(C#N)=C/C2CCOCC2)C3C)C2(CC2)C1 (mixture of isomers) [Compound B137, (E/Z)-2-(5-((7-(2,6-dimethoxy-4-(1,4,5-trimethyl-6-oxo-1,6-dihydropyridin-3-yl)benzyl)-4,7-diazaspiro[2.5]octan-4-yl)methyl)-1-methyl-1,2,3,4-tetrahydroisoquinoline-2-carbonyl)-3-(tetrahydro-2H-pyran-4-yl)acrylonitrile]
DC50: 1.25 to 10 nM
Dmax: > 75%

SMILES: COc1cc(-c2cn(C)c(=O)c(C)c2C)cc(OC)c1CN1CCN(Cc2cccc3c2CCN(C(=O)/C(C#N)=C/C(C)(C)F)C3C)C2(CC2)C1 (mixture of isomers) [Compound B140, (E/Z)-2-[5-[[7-[[2,6-dimethoxy-4-(1,4,5-trimethyl-6-oxo-3-pyridyl)phenyl]methyl]-4,7-diazaspiro[2.5]octan-4-yl]methyl]-1-methyl-3,4-dihydro-1H-isoquinoline-2-carbonyl]-4-fluoro-4-methyl-pent-2-enenitrile]
DC50: < 1.25 nM
Dmax: > 75%

More lines, now with the values ahead:

DC50: < 1.25 nM
Dmax: 70 to 75%
SMILES: COc1cc(-c2cn(C)c(=O)c3[nH]ncc23)cc(OC)c1CN1CCN(Cc2cccc3c2CCN(C(=O)/C(C#N)=C/c2cccc(Br)n2)C3C)C2(CC2)C1 (mixture of isomers) [Compound B118, (E/Z)-3-(6-bromopyridin-2-yl)-2-(5-((7-(2,6-dimethoxy-4-(6-methyl-7-oxo-6,7-dihydro-1H-pyrazolo[3,4-c]pyridin-4-yl)benzyl)-4,7-diazaspiro[2.5]octan-4-yl)methyl)-1-methyl-1,2,3,4-tetrahydroisoquinoline-2-carbonyl)acrylonitrile]

DC50: 10 to 25 nM
Dmax: 40 to 70%
SMILES: COc1cc(-c2cn(C)c(=O)c(C)c2C)cc(OC)c1CN1CCN(Cc2cccc3c2CCN(C(=O)/C(C#N)=C/C(C)(C)C)C3C)[C@H](C)C1 (mixture of isomers) [Compound B119, (E/Z)-2-(5-(((R)-4-(2,6-dimethoxy-4-(1,4,5-trimethyl-6-oxo-1,6-dihydropyridin-3-yl)benzyl)-2-methylpiperazin-1-yl)methyl)-1-methyl-1,2,3,4-tetrahydroisoquinoline-2-carbonyl)-4,4-dimethylpent-2-enenitrile]

DC50: 1.25 to 10 nM
Dmax: > 75%
SMILES: CC[C@H]1CN(Cc2cccc3c2CCN(C(=O)/C(C#N)=C/C(C)(C)C)C3C)CCN1Cc1c(OC)cc(-c2cn(C)c(=O)c(C)c2C)cc1OC (mixture of isomers) [Compound B135, (E/Z)-2-(5-(((S)-4-(2,6-dimethoxy-4-(1,4,5-trimethyl-6-oxo-1,6-dihydropyridin-3-yl)benzyl)-3-ethylpiperazin-1-yl)methyl)-1-methyl-1,2,3,4-tetrahydroisoquinoline-2-carbonyl)-4,4-dimethylpent-2-enenitrile]

DC50: < 1.25 nM
Dmax: > 75%
SMILES: COc1cc(-c2cn(C)c(=O)c(C)c2C)cc(OC)c1CN1CCN(Cc2cccc3c2CCN(C(=O)/C(C#N)=C/C(C)(C)C(F)F)C3C)C2(CC2)C1 (mixture of isomers) [Compound B138, (E/Z)-2-(5-((7-(2,6-dimethoxy-4-(1,4,5-trimethyl-6-oxo-1,6-dihydropyridin-3-yl)benzyl)-4,7-diazaspiro[2.5]octan-4-yl)methyl)-1-methyl-1,2,3,4-tetrahydroisoquinoline-2-carbonyl)-5,5-difluoro-4,4-dimethylpent-2-enenitrile]

DC50: 10 to 25 nM
Dmax: 70 to 75%
SMILES: CC[C@@H]1CN(Cc2c(OC)cc(-c3cn(C)c(=O)c(C)c3C)cc2OC)CCN1Cc1cccc2c1CCN(C(=O)/C(C#N)=C/C(C)(C)C)C2C (mixture of isomers) [Compound B139, (E/Z)-2-(5-(((R)-4-(2,6-dimethoxy-4-(1,4,5-trimethyl-6-oxo-1,6-dihydropyridin-3-yl)benzyl)-2-ethylpiperazin-1-yl)methyl)-1-methyl-1,2,3,4-tetrahydroisoquinoline-2-carbonyl)-4,4-dimethylpent-2-enenitrile]

DC50: < 1.25 nM
Dmax: > 75%
SMILES: COc1cc(-c2cn(C)c(=O)c(C)c2C)cc(OC)c1CN1CCN(Cc2cccc3c2CCN(C(=O)/C(C#N)=C\C24CC(OC)(C2)C4)C3C)C2(CC2)C1 (mixture of isomers) [Compound B141, (E/Z)-2-(5-((7-(2,6-dimethoxy-4-(1,4,5-trimethyl-6-oxo-1,6-dihydropyridin-3-yl)benzyl)-4,7-diazaspiro[2.5]octan-4-yl)methyl)-1-methyl-1,2,3,4-tetrahydroisoquinoline-2-carbonyl)-3-(3-methoxybicyclo[1.1.1]pentan-1-yl)acrylonitrile]

DC50: 1.25 to 10 nM
Dmax: > 75%
SMILES: COc1cc(-c2cn(C)c(=O)c(C)c2C)cc(OC)c1CN1CCN(Cc2cccc3c2CCN(C(=O)/C(C#N)=C/C(C)(C)C)C3C)CC1=O (mixture of isomers) [Compound B142]
